Reference: US12137687B2, “Method for inducing acquired resistance in a plant” (HEINRICH HEINE UNIVERSITAET DUESSELDORF, priority 2017, dated 2024)
Like-named read-outs stand apart in the source and are kept apart here.

Columns and labels:
[1] = tested on: Pseudomonas syringae pv maculicola ES4326 (Psm lux); format: in vivo
[2] = tested on: Hyaloperonospora arabidopsidis (Hpa) isolate Noco2; assay: Arabidopsis thaliana resistance to Hpa after Pip/NHP pre-treatment (symptoms, Trypan blue microscopy); format: in vivo; details: for symptomology of leaves (photographs): 7 days after inoculation; for disease development in the SA-deficient mutant: sid2 mutant
[3] = tested on: Pseudomonas syringae pv. tabaci (DSM 1856); assay: Tobacco (Nicotiana tabacum cv Xanthi) resistance to Pseudomonas tabaci after soil-applied Pip/NHP; details: for disease symptoms (yellowing and wilting) of infiltrated 1° leaves: tobacco 4-leaf stage, 40 ml of 1 mM (40 μmol) via soil 1 d prior to inoculation, 48 h after infection
Protocol: Plant pots with tobacco at the 4-leaf stage (BBCH growth stage 1004) were supplied with either 40 ml of H2O (mock-treatment; left) or 40 ml of 1 mM Pip or NHP (=40 μmol) 1 d prior to inoculation with a suspension (OD600=0.005, O/N-culture grown at 18° C.) of Pseudomonas tabaci via pressure infiltration. […] Infiltrated 1° leaves from representative plants were cut and photographed 48 h after the initial infection.

[4] = 1° leaves pressure-infiltrated with 1 mM NHP 24 h before inoculation

SMILES: O=C(O)C1CCCCN1O (stereo not shown) [NHP, 1-hydroxypiperidine-2-carboxylic acid]
- reduction of bacterial numbers, 2° leaves inoculated (systemic) [1, 4]: more than 15 fold
- reduction of bacterial numbers, Psm lux infiltrated in the pre-treated 1° leaves (local) [1, 4]: about 8 fold
- Resistance effect after NHP pre-treatment ([1]; Arabidopsis thaliana, Pseudomonas syringae): Yes
- attenuation of Psm lux growth ([1]; Col-0, ald1, and fmo1 (all genotypes), 10 μmol via soil 1 d before inoculation, 60 hpi): at least one order of magnitude
- chlorotic symptom development ([1]; Col-0, ald1, and fmo1, 10 μmol via soil, 72 hpi): lack of the chlorotic symptom development
- reduction in bacterial numbers compared to mock-treated plants ([1]; Col-0, 10 μmol NHP via soil 1 day before infection, 54 h post inoculation): about 9 fold
- reduction in bacterial numbers compared to mock-treated plants ([1]; Col-0, 10 μmol NHP via soil 3 days before infection, 54 h post inoculation): about 6 fold
- reduction in bacterial numbers compared to mock-treated plants ([1]; Col-0, 10 μmol NHP via soil 7 days before infection, 54 h post inoculation): about 3 fold
- further reduction of bacterial growth compared to plants treated with 10 μmol of NHP ([1]; Col-0, 100 μmol NHP per pot via soil, 54 h post inoculation): 2 fold
- reduction of bacterial numbers compared to control plants ([1]; Col-0, 0.1 mM NHP (1 μmol/pot) via soil 24 h prior to Psm lux, 54 h post inoculation): about 2 fold
- reduction of bacterial numbers compared to mock-treated plants ([1]; Col-0, 10 mM NHP (100 μmol per pot) via soil 24 h prior to Psm lux, 54 h post inoculation): about 20 fold
- lower levels of bacteria in leaves compared to control plants ([1]; Col-0, 10 ml of 1 mM NHP (10 μmol per pot) via soil 24 h prior to Psm lux, 54 h post inoculation): about 11 fold
- disease symptoms of leaves ([1]; Col-0, 10 ml of 1 mM NHP via soil 24 h prior to Psm lux): largely symptom-free
- reduction of bacterial numbers in Psm lux-inoculated 1° leaves ([1]; Col-0, foliar spray of 1 mM NHP with 0.005% Silwet 24 h before inoculation, 54 h post inoculation): about 12 fold
- difference in bacterial numbers between control and treated plants ([1]; Col-0 wild-type (experiment with sid2), 10 μmol via soil, 60 hpi): ten-fold difference
- bacterial numbers in leaves lower than those of naive plants ([1]; SA-deficient sid2 mutant, 10 μmol via soil, 60 hpi): about 2.5 fold
- Resistance effect after NHP pre-treatment ([2]; Arabidopsis thaliana, Hyaloperonospora arabidopsidis): Yes
- symptomology of leaves (photographs) ([2]; Col-0, ald1, and fmo1, 10 μmol via soil): completely symptom-free
- development of oospores ([2]; Col-0, 10 μmol via soil, 7 dpi): completely inhibited
- examined leaves that fully prohibited the formation of intercellular hyphae ([2]; Col-0, 10 μmol via soil, 7 dpi): About 70%
- macroscopic mildew symptoms ([2]; Col-0, 10 μmol via soil, 7 dpi): completely free of mildew symptoms
- occurrence/development of conidiophores on leaves ([2]; Col-0, 10 μmol via soil, 7 dpi): completely inhibited
- disease development in the SA-deficient mutant ([2]; 10 μmol via soil): not able to fully prevent disease development
- Resistance effect after NHP pre-treatment ([3]; Nicotiana tabacum cv. Xanthi, Pseudomonas syringae pv. tabaci (DSM 1856)): Yes
- disease symptoms (yellowing and wilting) of infiltrated 1° leaves [3]: almost absent

SMILES: O=C(O)[C@@H]1CCCCN1 [Pip, (S)-piperidine-2-carboxylic acid]
- bacterial multiplication in leaves of treated compared with control plants ([1]; Col-0 and ald1, 10 μmol via soil 1 d before Psm lux, 60 hpi): ten-fold lower
- chlorotic leaf symptoms ([1]; Col-0 and ald1, 10 μmol via soil, 72 hpi): suppression of the development of chlorotic leaf symptoms
- average length of intercellular hyphae growing inside leaves ([2]; Col-0, 10 μmol via soil 24 h before Hpa, 7 dpi): about 50 mm cm^−2
- development of oospores ([2]; Col-0, 10 μmol via soil, 7 dpi): fully prevented
- intercellular hyphae closely encased by dead host cells (trailing necrosis) ([2]; Col-0, 10 μmol via soil, 7 dpi): about 60%
- length of intercellular hyphae as share of the value for non-pretreated Col-0 plants ([2]; Col-0, 10 μmol via soil, 7 dpi): ~10%
- macroscopic mildew symptoms ([2]; Col-0, 10 μmol via soil, 7 dpi): largely symptom-free
- occurrence/development of conidiophores on leaves ([2]; Col-0, 10 μmol via soil, 7 dpi): greatly diminished
- symptomology of leaves (photographs) ([2]; Col-0 and ald1, 10 μmol via soil): only sporadically show small areas of visible mildew symptoms
- effect on the resistance of fmo1 to Hpa ([2]; fmo1 mutant, 10 μmol via soil): no effect
- disease development in the SA-deficient mutant ([2]; 10 μmol via soil): not able to fully prevent disease development
- disease symptoms (yellowing and wilting) of infiltrated 1° leaves [3]: severely reduced
